{"source": "patent US12352767B2", "about": "“Method of treating cognitive decline associated with neurological diseases based on a decrease in FLT4 expression or activity” (University of Virginia Patent Foundation, priority 2018, dated 2025)", "tested_on": "Ly6GnegCD45+CD11b+ brain myeloid cells", "experiment": "Single cell RNA-seq of brain myeloid cells (microglia) of WT and 5xFAD mice (Table 6, Table 7)", "format": "in vivo", "set-up": "key to Rel. Expr. 5xFAD Vis. + photo: HS-Q7 / Rel. Expr. 5xFAD Vis. + photo: Axl / Rel. Expr. 5xFAD Vis.: Ctdnep1 / Rel. Expr. 5xFAD Vis. + photo: Ctdnep1 / Rel. Expr. 5xFAD Vis.: Fabp5 / Rel. Expr. 5xFAD Vis. + photo: Fabp5 / Rel. Expr. 5xFAD Vis.: Nampt / Rel. Expr. 5xFAD Vis. + photo: Nampt / Rel. Expr. 5xFAD Vis. + photo: Tfdp1 / Rel. Expr. 5xFAD Vis. + photo: Hspb11 / Rel. Expr. 5xFAD Vis.: Tyrobp / Rel. Expr. 5xFAD Vis. + photo: Tyrobp / Rel. Expr. 5xFAD Vis. + photo: Tpt1 / Rel. Expr. 5xFAD Vis.: Fth1 / Rel. Expr. 5xFAD Vis. + photo: Fth1 / Rel. Expr. 5xFAD Vis. + photo: Eef1a1 / Rel. Expr. 5xFAD Vis.: Lgals3bp / Rel. Expr. 5xFAD Vis. + photo: Lgals3bp / Rel. Expr. 5xFAD Vis.: Ifitm3 / Rel. Expr. 5xFAD Vis. + photo: Ifitm3 / Rel. Expr. 5xFAD Vis.: Atp5h / Rel. Expr. 5xFAD Vis. + photo: Atp5h / Rel. Expr. 5xFAD Vis.: Fau / Rel. Expr. 5xFAD Vis. + photo: Fau / Rel. Expr. 5xFAD Vis.: Ftl1 / Rel. Expr. 5xFAD Vis. + photo: Ftl1 / Rel. Expr. 5xFAD Vis.: H2-K1 / Rel. Expr. 5xFAD Vis. + photo: H2-K1 / Rel. Expr. 5xFAD Vis. + photo: Tmsb4x / Rel. Expr. 5xFAD Vis. + photo: Uba52 / Rel. Expr. WT Vis.: Hexb / Rel. Expr. 5xFAD Vis.: Hexb / Rel. Expr. WT Vis.: Lgmn / Rel. Expr. 5xFAD Vis.: Lgmn / Rel. Expr. 5xFAD Vis. + photo: Rtp4 / Rel. Expr. 5xFAD Vis.: Lpl / Rel. Expr. 5xFAD Vis. + photo: Lpl: A “+” refers to relative upregulation of gene expression for the noted conditions; A “-” refers to relative downregulation of gene expression for the noted conditions", "protocol": "Effects of meningeal ablation on gene expression were studied in 5×FAD mice. Single cell RNA-seq of brain myeloid cells from 4 months old wild type (WT) and 5×FAD mice were injected with Visudyne alone (Vis., functional meningeal lymphatics) or injected with Visudyne and subjected to transcranial photoconversion (Vis.+photo., ablated meningeal lymphatics). Meningeal lymphatic ablation step was performed twice within a span of 3 weeks and brain myeloid cells were isolated 3 weeks after the last step. Data were obtained from sorted live Ly6G^negCD45^+CD11b^+ brain myeloid cells pooled from 3 mice per group (FIGS. 14A-B). Unsupervised clustering of brain myeloid single cells using t-distributed Stochastic Neighbor Embedding (t-SNE) plotted by group (FIG. 14A) or by distinct cell cluster (FIG. 14B). Frequency of cells from each cluster within the total 354, 487 and 308 cells from WT Vis., 5×FAD Vis. and 5×FAD Vis.+photo. groups, respectively (FIG. 14C). Genes involved in the acquisition of the disease-associated microglia phenotype, depicting the homeostatic, TREM2-independent and TREM2-dependent signatures within each cell were depicted in a heatmap (FIG. 14D). Cells are grouped by cluster and genes are grouped by signature (FIG. 14D). Upset plots were generated for all cells (FIG. 14E) or cluster 1 cells (FIG. 14F) showing the overlap in differentially expressed genes for comparisons between 5×FAD Vis. or 5×FAD Vis.+photo. and WT Vis. […] Expression values are averaged across cells within each group. Normalized enrichment score for GSEA pathways were obtained by Fisher's exact test with Benjamini-Hochberg corrections for the 24 differentially expressed genes in cluster 1 is shown in FIG. 14H. Enrichment analysis was performed in R using the clusterProfiler package. Depicted in FIG. 14I is a heatmap showing the mean-centered average log normalized expression of each gene contributing to the core-enrichment of the “Lysosome” GSEA pathway. Expression values are averaged across cells within each group. All scales show mean-centered, log-normalized expression values.", "key": {"[1]": {"conditions": "5xFAD mice, Visudyne + photoconversion, cluster 1 brain myeloid cells"}, "[2]": {"conditions": "5xFAD mice, Visudyne alone, cluster 1 brain myeloid cells"}, "[3]": {"conditions": "WT mice, Visudyne alone, cluster 1 brain myeloid cells"}}, "data": [{"substance": "verteporfin [Visudyne]", "values": [{"measurement": "Rel. Expr. 5xFAD Vis. + photo: Atp5h", "setting": "[1]", "result": "+"}, {"measurement": "Rel. Expr. 5xFAD Vis. + photo: Axl", "setting": "[1]", "result": "+"}, {"measurement": "Rel. Expr. 5xFAD Vis. + photo: Ctdnep1", "setting": "[1]", "result": "+"}, {"measurement": "Rel. Expr. 5xFAD Vis. + photo: Eef1a1", "setting": "[1]", "result": "+"}, {"measurement": "Rel. Expr. 5xFAD Vis. + photo: Fabp5", "setting": "[1]", "result": "+"}, {"measurement": "Rel. Expr. 5xFAD Vis. + photo: Fau", "setting": "[1]", "result": "+"}, {"measurement": "Rel. Expr. 5xFAD Vis. + photo: Fth1", "setting": "[1]", "result": "+"}, {"measurement": "Rel. Expr. 5xFAD Vis. + photo: Ftl1", "setting": "[1]", "result": "+"}, {"measurement": "Rel. Expr. 5xFAD Vis. + photo: H2-K1", "setting": "[1]", "result": "+"}, {"measurement": "Rel. Expr. 5xFAD Vis. + photo: HS-Q7", "setting": "[1]", "result": "+"}, {"measurement": "Rel. Expr. 5xFAD Vis. + photo: Hspb11", "setting": "[1]", "result": "+"}, {"measurement": "Rel. Expr. 5xFAD Vis. + photo: Ifitm3", "setting": "[1]", "result": "+"}, {"measurement": "Rel. Expr. 5xFAD Vis. + photo: Lgals3bp", "setting": "[1]", "result": "+"}, {"measurement": "Rel. Expr. 5xFAD Vis. + photo: Lpl", "setting": "[1]", "result": "+"}, {"measurement": "Rel. Expr. 5xFAD Vis. + photo: Nampt", "setting": "[1]", "result": "+"}, {"measurement": "Rel. Expr. 5xFAD Vis. + photo: Rtp4", "setting": "[1]", "result": "+"}, {"measurement": "Rel. Expr. 5xFAD Vis. + photo: Tfdp1", "setting": "[1]", "result": "+"}, {"measurement": "Rel. Expr. 5xFAD Vis. + photo: Tmsb4x", "setting": "[1]", "result": "+"}, {"measurement": "Rel. Expr. 5xFAD Vis. + photo: Tpt1", "setting": "[1]", "result": "+"}, {"measurement": "Rel. Expr. 5xFAD Vis. + photo: Tyrobp", "setting": "[1]", "result": "+"}, {"measurement": "Rel. Expr. 5xFAD Vis. + photo: Uba52", "setting": "[1]", "result": "+"}, {"measurement": "Rel. Expr. 5xFAD Vis.: Atp5h", "setting": "[2]", "result": "+"}, {"measurement": "Rel. Expr. 5xFAD Vis.: Ctdnep1", "setting": "[2]", "result": "+"}, {"measurement": "Rel. Expr. 5xFAD Vis.: Fabp5", "setting": "[2]", "result": "+"}, {"measurement": "Rel. Expr. 5xFAD Vis.: Fau", "setting": "[2]", "result": "+"}, {"measurement": "Rel. Expr. 5xFAD Vis.: Fth1", "setting": "[2]", "result": "+"}, {"measurement": "Rel. Expr. 5xFAD Vis.: Ftl1", "setting": "[2]", "result": "+"}, {"measurement": "Rel. Expr. 5xFAD Vis.: H2-K1", "setting": "[2]", "result": "+"}, {"measurement": "Rel. Expr. 5xFAD Vis.: Hexb", "setting": "[2]", "result": "+"}, {"measurement": "Rel. Expr. 5xFAD Vis.: Ifitm3", "setting": "[2]", "result": "+"}, {"measurement": "Rel. Expr. 5xFAD Vis.: Lgals3bp", "setting": "[2]", "result": "+"}, {"measurement": "Rel. Expr. 5xFAD Vis.: Lgmn", "setting": "[2]", "result": "+"}, {"measurement": "Rel. Expr. 5xFAD Vis.: Lpl", "setting": "[2]", "result": "+"}, {"measurement": "Rel. Expr. 5xFAD Vis.: Nampt", "setting": "[2]", "result": "+"}, {"measurement": "Rel. Expr. 5xFAD Vis.: Tyrobp", "setting": "[2]", "result": "+"}, {"measurement": "expression of genes of the GSEA lysosome pathway (Table 7, FIG. 14I)", "setting": "5xFAD mice, Visudyne with photo ablation, brain myeloid cells", "result": "relatively downregulated"}, {"measurement": "expression of 24 genes (Table 6) in cluster 1 brain myeloid cells, 5xFAD Vis.+photo. vs WT Vis.", "setting": "Visudyne + photoconversion twice within 3 weeks", "result": "significantly different"}, {"measurement": "expression of 24 genes (Table 6) in cluster 1 brain myeloid cells, 5xFAD Vis. vs WT Vis.", "setting": "Visudyne alone, no photoconversion", "result": "not significantly different"}, {"measurement": "Rel. Expr. WT Vis.: Hexb", "setting": "[3]", "result": "+"}, {"measurement": "Rel. Expr. WT Vis.: Lgmn", "setting": "[3]", "result": "+"}]}]}
